# In US20240247024A1, “INHIBITORS OF NICOTINAMIDE N-METHYL TRANSFERASE (NNMT)” (UNIVERSITEIT LEIDEN, priority 2021, published 2024):
# Like-named read-outs stand apart in the source and are kept apart here.
# How the values were obtained:
# [1] = system: T24 human bladder cancer cell line; experiment: MTT cell proliferation assay, T24; format: cell-based; settings: for % of DMSO control at 100 μM, T24, 24 h: 24 h incubation; for % of DMSO control at 100 μM, T24, 48 h: 48 h incubation; for % of DMSO control at 100 μM, T24, 72 h: 72 h incubation
# Method: (§1) UROTsa immortalized human urothelium cell line, HSC-2 human oral cancer cell line, T24 human bladder cancer cell line and A549 human lung cancer line were purchased from the American Type Culture Collection (ATCC, Rockville, MD, USA), and cultured in DMEM/F12 medium, supplemented with 10% fetal bovine serum and 50 μg/ml gentamicin, at 37° C. in a humidified 5% CO2 incubator. For each compound tested, powder was dissolved in DMSO at 100 mM concentration. This stock solution was then diluted in culture medium to final concentration values ranging between 1 μM and 100 μM. For each sample, DMSO was kept constant at 0.1% final concentration. The day before starting treatment, cells were seeded in 96-well plates, at a density of 2000 cells/well. Cells were allowed to attach overnight and then incubated with compounds at different final concentrations, or with DMSO only, for 24, 48 and 72 hours. All experiments were performed in triplicate.
# (§2) Cell proliferation was determined using a colorimetric assay with 3-(4,5-dimethylthiazol-2-yl)-2,5-diphenyl tetrazolium bromide (MTT). The MTT assay measures the conversion of MTT to insoluble formazan by dehydrogenase enzymes of the intact mitochondria of living cells. Cell proliferation was evaluated by measuring the conversion of the tetrazolium salt MTT to formazan crystals upon treatment with compounds or DMSO only for 24, 48 and 72 hours. Briefly, cells were incubated for 2 hours at 37° C. with 100 μl fresh culture medium containing 5 μl of MTT reagent (5 mg/ml in PBS). The medium was removed and 200 μl isopropanol were added. The amount of formazan crystals formed correlated directly with the number of viable cells. The reaction product was quantified by measuring the absorbance at 540 nm using an ELISA plate reader. Experiments were repeated three times. Results were expressed as percentage of the control (control equals 100% and corresponds to the absorbance value of each sample at time zero) and presented as mean values±standard deviation of three independent experiments performed in triplicate.
# (§3) Data were analysed using GraphPad Prism software for Windows (GraphPad Software, San Diego, CA). Significant differences between groups were determined using the one-way analysis of variance (ANOVA). A p value <0.05 was considered as statistically significant.
# [2] = system: A549 human lung cancer line; experiment: MTT cell proliferation assay, A549; format: cell-based; settings: for % of DMSO control at 100 μM, A549, 24 h: 24 h incubation; for % of DMSO control at 100 μM, A549, 48 h: 48 h incubation; for % of DMSO control at 100 μM, A549, 72 h: 72 h incubation
# Method: as §1, §2, §3
# [3] = system: HSC-2 human oral cancer cell line; experiment: MTT cell proliferation assay, HSC-2; format: cell-based; settings: for % of DMSO control at 100 μM, HSC-2, 24 h: 24 h incubation; for % of DMSO control at 100 μM, HSC-2, 48 h: 48 h incubation; for % of DMSO control at 100 μM, HSC-2, 72 h: 72 h incubation
# Method: as §1, §2, §3
# [4] = molecular target: T1, NNMT (Homo sapiens, UniProt P40261); design: The enzymatic activity assays were performed using NNMT at a final concentration of 100 nM diluted in assay buffer; settings: known NNMT inhibitors, background section; read-out: IC50 against NNMT; cited from earlier work
# T1 sequence (P40261 1-264): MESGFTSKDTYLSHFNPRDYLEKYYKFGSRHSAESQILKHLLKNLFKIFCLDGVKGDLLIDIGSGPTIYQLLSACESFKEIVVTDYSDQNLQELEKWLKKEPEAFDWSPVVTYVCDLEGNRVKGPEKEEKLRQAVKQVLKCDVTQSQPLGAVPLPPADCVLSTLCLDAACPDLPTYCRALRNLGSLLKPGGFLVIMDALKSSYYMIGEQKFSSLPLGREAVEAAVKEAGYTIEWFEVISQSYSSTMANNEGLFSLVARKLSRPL
# [5] = system: high-fat DIO mice; settings: cited from earlier work
# [6] = molecular target: T1, NNMT; experiment: NNMT assay (HILIC-MS/MS, formation of MNA); settings: NA 200 μM, SAM 8.5 μM, maximum concentration tested 25 μM
SMILES,"% of DMSO control at 100 μM, T24, 24 h [1]","% of DMSO control at 100 μM, T24, 48 h [1]","% of DMSO control at 100 μM, T24, 72 h [1]","% of DMSO control at 100 μM, A549, 24 h [2]","% of DMSO control at 100 μM, A549, 48 h [2]","% of DMSO control at 100 μM, A549, 72 h [2]","% of DMSO control at 100 μM, HSC-2, 24 h [3]","% of DMSO control at 100 μM, HSC-2, 48 h [3]","% of DMSO control at 100 μM, HSC-2, 72 h [3]",IC50 [4],other results
COC(=O)[C@H](CCN(C/C=C/c1ccc(C#N)cc1)C[C@H]1O[C@@H](n2cnc3c(N)ncnc32)[C@H](O)[C@@H]1O)NC(=O)CC(C)(C)c1c(C)cc(C)cc1OC(C)=O [GYZ-573],100 % of DMSO control,79 % of DMSO control,62 % of DMSO control,100 % of DMSO control,100 % of DMSO control,100 % of DMSO control,83 % of DMSO control,69 % of DMSO control,39 % of DMSO control,–,–
COC(=O)[C@@H](N)CCN(C/C=C/c1ccc(C#N)cc1)C[C@H]1O[C@@H](n2cnc3c(N)ncnc32)[C@H](O)[C@@H]1O [GYZ-494],100 % of DMSO control,76 % of DMSO control,100 % of DMSO control,100 % of DMSO control,100 % of DMSO control,88 % of DMSO control,100 % of DMSO control,100 % of DMSO control,87 % of DMSO control,–,–
CCOC(=O)[C@@H](N)CCN(C/C=C/c1ccc(C#N)cc1)C[C@H]1O[C@@H](n2cnc3c(N)ncnc32)[C@H](O)[C@@H]1O [GYZ-552],100 % of DMSO control,100 % of DMSO control,100 % of DMSO control,100 % of DMSO control,100 % of DMSO control,100 % of DMSO control,100 % of DMSO control,100 % of DMSO control,73 % of DMSO control,–,–
CCCOC(=O)[C@H](CCN(C/C=C/c1ccc(C#N)cc1)C[C@H]1O[C@@H](n2cnc3c(N)ncnc32)[C@H](O)[C@@H]1O)NC(=O)CC(C)(C)c1c(C)cc(C)cc1OC(C)=O [GYZ-580],72 % of DMSO control,36 % of DMSO control,15 % of DMSO control,83 % of DMSO control,45 % of DMSO control,25 % of DMSO control,59 % of DMSO control,41 % of DMSO control,16 % of DMSO control,–,–
CCCOC(=O)[C@@H](N)CCN(C/C=C/c1ccc(C#N)cc1)C[C@H]1O[C@@H](n2cnc3c(N)ncnc32)[C@H](O)[C@@H]1O [GYZ-579],82 % of DMSO control,71 % of DMSO control,100 % of DMSO control,100 % of DMSO control,100 % of DMSO control,100 % of DMSO control,100 % of DMSO control,57 % of DMSO control,63 % of DMSO control,–,–
CC(C)OC(=O)[C@@H](N)CCN(C/C=C/c1ccc(C#N)cc1)C[C@H]1O[C@@H](n2cnc3c(N)ncnc32)[C@H](O)[C@@H]1O [GYZ-553],100 % of DMSO control,71 % of DMSO control,100 % of DMSO control,100 % of DMSO control,100 % of DMSO control,100 % of DMSO control,100 % of DMSO control,75 % of DMSO control,56 % of DMSO control,–,–
NC(=O)c1cccc(CCN(CCC[C@H](N)C(=O)O)C[C@H]2O[C@@H](n3cnc4c(N)ncnc43)[C@H](O)[C@@H]2O)c1 [MS2734],–,–,–,–,–,–,–,–,–,14 µM,–
COc1ccc(C(N)=O)cn1 [JBSNF-000088],–,–,–,–,–,–,–,–,–,2.4 µM,body weight [5]: reduce; glucose tolerance [5]: normalize; insulin sensitivity [5]: improve; plasma levels of MNA [5]: reduce
Cc1cccc2ccc[n+](C)c12 [8-methyl-1-MQ],–,–,–,–,–,–,–,–,–,1.8 µM,–
NC(=O)c1cccc(CCN(CC[C@H](N)C(=O)O)C[C@H]2O[C@@H](n3cnc4c(N)ncnc43)[C@H](O)[C@@H]2O)c1 [MS2756],–,–,–,–,–,–,–,–,–,160 µM,–
N#Cc1ccc(/C=C/CN(CC[C@H](N)C(=O)O)C[C@H]2O[C@@H](n3cnc4c(N)ncnc43)[C@H](O)[C@@H]2O)cc1 [GYZ-319],100 % of DMSO control,79 % of DMSO control,86 % of DMSO control,100 % of DMSO control,74 % of DMSO control,66 % of DMSO control,100 % of DMSO control,53 % of DMSO control,49 % of DMSO control,–,–
C[n+]1cccc2ccccc21 [Compound 1-MQ],–,–,–,–,–,–,–,–,–,12.1 µM,–
CCOC(=O)[C@H](CCN(C/C=C/c1ccc(C#N)cc1)C[C@H]1O[C@@H](n2cnc3c(N)ncnc32)[C@H](O)[C@@H]1O)NC(=O)CC(C)(C)c1c(C)cc(C)cc1OC(C)=O [NB60],100 % of DMSO control,50 % of DMSO control,29 % of DMSO control,100 % of DMSO control,100 % of DMSO control,76 % of DMSO control,79 % of DMSO control,44 % of DMSO control,26 % of DMSO control,–,–
CC(=O)Oc1cc(C)cc(C)c1C(C)(C)CC(=O)N[C@@H](CCN(C/C=C/c1ccc(C#N)cc1)C[C@H]1O[C@@H](n2cnc3c(N)ncnc32)[C@H](O)[C@@H]1O)C(=O)O [MH128],100 % of DMSO control,83 % of DMSO control,84 % of DMSO control,100 % of DMSO control,100 % of DMSO control,100 % of DMSO control,100 % of DMSO control,100 % of DMSO control,65 % of DMSO control,–,–
COC(=O)/C=C/C(=O)NCCN(C/C=C/c1ccc(C#N)cc1)C[C@H]1O[C@@H](n2cnc3c(N)ncnc32)[C@H](O)[C@@H]1O [GYZ-694],–,–,–,–,–,–,–,–,–,–,"IC50 ([6]; IC50 values (nM), Table 6, amino acid replacement): > 25000 nM; IC50 ([6]; IC50 values (μM), Table 6, amino acid replacement): > 25000 nM"
Nc1ncnc2c1ncn2[C@@H]1O[C@H](CN(CC[C@H](N)C(=O)O)Cc2ccc(F)cc2)[C@@H](O)[C@H]1O [GYZ-423],–,–,–,–,–,–,–,–,–,–,"IC50 ([6]; IC50 values (nM), Table 3, 1-carbon alkyl linkers): > 25000 nM; IC50 ([6]; IC50 values (μM), Table 3, 1-carbon alkyl linkers): > 25000 nM"
